The results in this text go back to ChEMBL document CHEMBL1201862, “PubChem BioAssay data set” (2004).

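Test compounds were applied to cells in 96-well plates for 48 hours at 5 doses. Here, GI50 denotes the concentration required for 50% inhibition of growth.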 Activity calls are given as the source filed them. Rule as the data show it: active = GI50 up to about 1.1 µM and inactive = higher.

Test systems include ACHN; BT-549; CAKI-1; CCRF-CEM; COLO 205; DU-145; HCC 2998; HCT-116; HOP-62; HT-29; KM12; LOX IMVI; MDA-MB-435; MDA-N; NCI-H226; NCI-H522; NCI/ADR-RES; OVCAR-8; SK-OV-3; SW-620.
Holding throughout (test): NCI tumour cell line growth inhibition, 48 h

As for `O=c1c2cccnc2[nH]c2ccc3[nH]ncc3c12`, the GI50 was 5.13 µM (inactive) in the test with ACHN; > 10 µM (inactive) in the test on BT-549; 7.45 µM (inactive) in the test with CAKI-1; > 10 µM (inactive) in the test on CCRF-CEM; > 10 µM (inactive) with COLO 205; > 10 µM (inactive) in the test on DU-145. For the same molecule, the GI50 with HCC 2998 is > 10 µM (inactive); in the test on HCT-116, 7.91 µM (inactive); with HOP-62 it was > 10 µM (inactive); in the test with HT-29, > 10 µM (inactive); in the test with KM12, 5.45 µM (inactive); in the test with LOX IMVI, 2.91 µM (inactive). Besides, the GI50 in the test on MDA-MB-435, in the test with MDA-N, in the test with NCI-H226, in the test on NCI-H522, in the test on NCI/ADR-RES and in the test on OVCAR-8 was > 10 µM (inactive) throughout. The GI50 in the test with SK-OV-3 and with SW-620 was > 10 µM (inactive) each time.

Regarding `O=C(c1ccccc1)N1OCCC1Nc1ccc(Br)cc1` (configuration not stated), the GI50 was 0.615 µM (active) in the test with ACHN; > 10 µM (inactive) with BT-549; 4.03 µM (inactive) in the test with CAKI-1; 3.8 µM (inactive) in the test on CCRF-CEM; 1.81 µM (inactive) with COLO 205; 6.24 µM (inactive) with DU-145. Moreover, the GI50 is 3.85 µM (inactive) with HCC 2998; 4.25 µM (inactive) in the test on HCT-116; 7.57 µM (inactive) in the test on HOP-62; 0.818 µM (active) in the test with HT-29; > 10 µM (inactive) with LOX IMVI; 0.499 µM (active) with MDA-MB-435. The GI50 is 3.8 µM (inactive) with MDA-N; > 10 µM (inactive) in the test with NCI-H226; > 10 µM (inactive) in the test with NCI-H522; 5.43 µM (inactive) with NCI/ADR-RES; > 10 µM (inactive) in the test with OVCAR-8; > 10 µM (inactive) in the test on SK-OV-3. The GI50 in the test on SW-620 was 0.818 µM (active).

On to `CC(=O)O[C@@H]1[C@H](C(C)C)[C@@H](OC(C)=O)C/C(C)=C/CC[C@]2(C)O[C@@H]12`, for which the GI50 with ACHN, with BT-549, in the test on CAKI-1, with COLO 205, with DU-145 and with HCC 2998 was > 100 µM (inactive) each time. In addition, the GI50 with HCT-116, with HOP-62, in the test on HT-29, in the test with KM12, with LOX IMVI and in the test on MDA-MB-435 was > 100 µM (inactive) in each case. For the same molecule, the GI50 with MDA-N, in the test with NCI-H226, in the test with NCI-H522, with NCI/ADR-RES, with OVCAR-8 and in the test on SK-OV-3 was > 100 µM (inactive) throughout. Moreover, the GI50 in the test on SW-620 is > 100 µM (inactive).

Consider `O=C1/C(=C/c2ccccc2)CCCC1CN1CCCCC1` (configuration not stated), for which the GI50 with ACHN was 3.4 µM (inactive); in the test with BT-549 it was 2.95 µM (inactive); in the test on CAKI-1, 1.81 µM (inactive); in the test on COLO 205 it was 3 µM (inactive); with DU-145 it was 14.3 µM (inactive); in the test with HCC 2998, 15.6 µM (inactive). Besides, the GI50 is 1.68 µM (inactive) in the test on HCT-116; 20.8 µM (inactive) in the test on HOP-62; 1.58 µM (inactive) in the test on HT-29; 1.19 µM (inactive) with KM12; 1.65 µM (inactive) in the test with LOX IMVI; 2 µM (inactive) with MDA-MB-435. Besides, the GI50 was 2.11 µM (inactive) in the test with MDA-N; 3.45 µM (inactive) in the test with NCI-H226; 0.242 µM (active) in the test with NCI-H522; 3.24 µM (inactive) in the test on NCI/ADR-RES; 2.09 µM (inactive) in the test on OVCAR-8; 17.2 µM (inactive) in the test on SK-OV-3. Moreover, the GI50 in the test on SW-620 was 1.33 µM (inactive).
